Measured values from US4746736A, “Carbapenem antibiotics” (priority 1986, dated 1988).
Values after ≈ are worked out from the molar mass of the structure shown. Counter-ions that a name gives are not always drawn. Like-named read-outs stand apart in the source and are kept apart here.

Legend:
K. pneumoniae A20468 = test: In vitro MIC by tube dilution, K. pneumoniae A20468; format: cell-based
E. cloacae A-9659 = test: In vitro MIC by tube dilution, E. cloacae A-9659; format: cell-based
[1] = tested on: S. aureus A-9606 (Pen-res.); test: In vitro MIC by tube dilution, S. aureus A-9606 (Pen-res.); format: cell-based
S. aureus A-9537 = test: In vitro MIC by tube dilution, S. aureus A-9537; format: cell-based
P. aeruginosa A-9843A [2] = test: In vitro MIC by tube dilution, P. aeruginosa A-9843A; format: cell-based
P. rettgeri A22424 = test: In vitro MIC by tube dilution, P. rettgeri A22424; format: cell-based
[3] = tested on: S. aureus A15097 (Meth-res.); test: In vitro MIC by tube dilution, S. aureus A15097 (Meth-res.); format: cell-based; conditions: Staphylococcus aureus
S. marcescens A20019 = test: In vitro MIC by tube dilution, S. marcescens A20019; format: cell-based
P. morganii A15153 = test: In vitro MIC by tube dilution, P. morganii (M. morganii) A15153; format: cell-based
K. pneumoniae A-9664 = test: In vitro MIC by tube dilution, K. pneumoniae A-9664; format: cell-based
P. mirabilis A-9900 = test: In vitro MIC by tube dilution, P. mirabilis A-9900; format: cell-based
H. influenzae A21522 = test: In vitro MIC by tube dilution, H. influenzae A21522; format: cell-based; conditions: Haemophilus influenzae
H. influenzae A20178 = test: In vitro MIC by tube dilution, H. influenzae A20178; format: cell-based; conditions: Haemophilus influenzae
E. coli A15119 = test: In vitro MIC by tube dilution, E. coli A15119; format: cell-based
E. cloacae A-9656 = test: In vitro MIC by tube dilution, E. cloacae A-9656; format: cell-based
S. faecalis A20688 = test: In vitro MIC by tube dilution, S. faecalis A20688; format: cell-based; conditions: S. faecalis A20688
E. coli A20341-1 = test: In vitro MIC by tube dilution, E. coli A20341-1; format: cell-based
[4] = Blood levels in mice after intramuscular administration; conditions: 20 mg/kg i.m., mice (compiled table)
Description: Compounds were solubilized in 0.1 M phosphate buffer pH 7.
Values are from a single test; 4 mice used per compound.
Compounds were solubilized in 0.1 M phosphate buffer, pH 7.
Values based on a single test; 4 mice per compound.

S. pneumoniae A-9585 = test: In vitro MIC by tube dilution, S. pneumoniae A-9585; format: cell-based
P. vulgaris A21559 = test: In vitro MIC by tube dilution, P. vulgaris A21559; format: cell-based; conditions: P. vulgaris A21559
S. pyogenes A9604 = test: In vitro MIC by tube dilution, S. pyogenes A9604; format: cell-based
P. aeruginosa A-9843a [5] = format: in vivo; conditions: P. aeruginosa A9843A, mice, i.m.
Protocol: The PD50 (dose in mg/kg required to give protection to 50% of the infected mice) is indicated.
Treatment Schedule: Except for E. coli A15119 and K. pneumoniae A9964,
mice were treated i.m. with drugs 0 and 2 hours postinfection.
5 mice per dose were used for each test
The PD50 (dose in mg/kg) required to give protection to 50% of the infected mice is indicated.

P. aeruginosa A21213 = test: In vitro MIC by tube dilution, P. aeruginosa A21213; format: cell-based; conditions: P. aeruginosa A21213
[6] = Klebsiella pneumoniae, A20468, K. pneumoniae A20468, read-out: MIC
[7] = Providencia rettgeri, A22424, P. rettgeri A22424, read-out: MIC
[8] = Serratia marcescens, read-out: MIC
[9] = Klebsiella pneumoniae, A9664, read-out: MIC
[10] = Proteus mirabilis, A9900, P. mirabilis A-9900, read-out: MIC

Compound: C[C@@H](O)[C@H]1C(=O)N2C(C(=O)[O-])=C(SCCc3cc[n+](C)cc3)C[C@H]12 [Example 2]
- MIC (K. pneumoniae A20468; [6]): 0.13 µg/mL (≈ 0.373 µM)
- MIC (E. cloacae A-9659; Enterobacter cloacae, A9659, E. cloacae A9659, read-out: MIC): 0.13 µg/mL (≈ 0.373 µM)
- MIC ([1]; Staphylococcus aureus, S. aureus A-9606 (Pen-res.), overnight 37° C., read-out: MIC): 0.008 µg/mL (≈ 0.023 µM)
- MIC (S. aureus A-9537; Staphylococcus aureus, A9537, S. aureus A-9537 + 50% serum, overnight 37° C., read-out: MIC): 0.016 µg/mL
- MIC (S. aureus A-9537; Staphylococcus aureus, A9537, S. aureus A-9537, no serum, overnight 37° C., read-out: MIC): 0.004 µg/mL (≈ 0.0115 µM)
- MIC (P. aeruginosa A-9843A [2]; Pseudomonas aeruginosa, A9843A, P. aeruginosa A-9843A, read-out: MIC): 8 µg/mL (≈ 23 µM)
- MIC (P. rettgeri A22424; [7]): 0.13 µg/mL (≈ 0.373 µM)
- MIC ([3]; S. aureus A15097 (Meth-res.), overnight 37° C.): 8 µg/mL (≈ 23 µM)
- MIC (S. marcescens A20019; [8]): 0.03 µg/mL (≈ 0.0861 µM)
- MIC (P. morganii A15153; Morganella morganii, A15153, P. morganii A15153, read-out: MIC): 0.06 µg/mL (≈ 0.172 µM)
- MIC (K. pneumoniae A-9664; [9]): 0.06 µg/mL (≈ 0.172 µM)
- MIC (P. mirabilis A-9900; [10]): 0.03 µg/mL (≈ 0.0861 µM)

Compound: C[C@@H](O)[C@H]1C(=O)N2C(C(=O)[O-])=C(SCc3cc[n+](C)cc3)C[C@H]12 [Example 1, 1-Methyl-4-[2-carboxy-6α-[1(R)-hydroxyethyl]-7-oxo-1-azabicyclo[3.2.0]hept-2-en-3-thiomethyl]pyridinium hydroxide inner salt]
- MIC (H. influenzae A21522): 8 µg/mL
- MIC (H. influenzae A20178): 32 µg/mL

Compound: 3-[4-(N,N-dimethyl-1,2,3-triazolium)methylthio]-6α-[1-(R)-hydroxyethyl]-7-oxo-1-azabicyclo(3.2.0)hept-2-ene-2-carboxylate [Example 15 "B"]
- MIC (E. coli A15119; E. coli A15119): 0.008 µg/mL
- MIC (K. pneumoniae A20468; K. pneumoniae A20468): 0.016 µg/mL
- MIC (E. cloacae A-9659; E. cloacae A-9659): 0.016 µg/mL
- MIC ([1]; S. aureus A-9606 (Pen-res)): 0.008 µg/mL
- MIC (S. aureus A-9537; S. aureus A-9537 +50% serum): 0.016 µg/mL
- MIC (S. aureus A-9537; S. aureus A-9537, no serum): 0.004 µg/mL
- MIC (E. cloacae A-9656; E. cloacae A-9656): 0.03 µg/mL
- MIC (P. aeruginosa A-9843A [2]; P. aeruginosa A-9843a): 2 µg/mL
- MIC (S. faecalis A20688): 0.5 µg/mL
- MIC (P. rettgeri A22424; P. rettgeri A22424): 0.13 µg/mL
- MIC (E. coli A20341-1): 0.008 µg/mL
- MIC (S. marcescens A20019): 0.016 µg/mL
- AUC [4]: 7400 ng·h/mL
- Cmax [4]: 15900 ng/mL
- MIC (S. pneumoniae A-9585; S. pneumoniae A-9585): 0.0005 µg/mL
- MIC (P. morganii A15153; M. morganii A15153): 0.06 µg/mL
- MIC (P. vulgaris A21559): 0.008 µg/mL
- MIC (S. pyogenes A9604; S. pyogenes A-9604): 0.001 µg/mL
- MIC (K. pneumoniae A-9664): 0.03 µg/mL
- PD50/treatment (P. aeruginosa A-9843a [5]): 0.89 mg/kg
- MIC (P. aeruginosa A21213): 0.13 µg/mL
- MIC (P. mirabilis A-9900; P. mirabilis A-9900): 0.03 µg/mL

Compound: C[C@@H](O)[C@H]1C(=O)N2C(C(=O)[O-])=C(SCCc3cccc[n+]3C)C[C@H]12 [Example 5, 3-(N-Methylpyridine-2-yl-ethanethio]-6α-[1-(R)-hydroxyethyl]-7-oxo-1-azabicyclo(3.2.0)hept-2-ene-2-carboxylate]
- MIC (E. coli A15119; Escherichia coli, A15119, E. coli A15119, read-out: MIC): 0.016 µg/mL (≈ 0.0459 µM)
- MIC (K. pneumoniae A20468; [6]): 0.06 µg/mL (≈ 0.172 µM)
- MIC (E. cloacae A-9659; Enterobacter cloacae, A9659, E. cloacae A-9659, read-out: MIC): 0.06 µg/mL (≈ 0.172 µM)
- MIC ([1]; Staphylococcus aureus, S. aureus A-9606 (Pen-res), read-out: MIC): 0.008 µg/mL (≈ 0.023 µM)
- MIC (S. aureus A-9537; Staphylococcus aureus, A9537, S. aureus A-9537 +50% serum, read-out: MIC): 0.016 µg/mL (≈ 0.0459 µM)
- MIC (S. aureus A-9537; Staphylococcus aureus, A9537, S. aureus A-9537, no serum, read-out: MIC): 0.004 µg/mL (≈ 0.0115 µM)
- MIC (E. cloacae A-9656; Enterobacter cloacae, A9656, E. cloacae A-9656, read-out: MIC): 0.13 µg/mL (≈ 0.373 µM)
- MIC (P. aeruginosa A-9843A [2]; Pseudomonas aeruginosa, A9843A, P. aeruginosa A-9843a, read-out: MIC): 4 µg/mL (≈ 11.5 µM)
- MIC (P. rettgeri A22424; [7]): 0.13 µg/mL (≈ 0.373 µM)
- MIC ([3]; S. aureus A15097 (Meth-res)): 8 µg/mL (≈ 23 µM)
- MIC (E. coli A20341-1; Escherichia coli, A203411, read-out: MIC): 0.016 µg/mL (≈ 0.0459 µM)
- MIC (S. marcescens A20019; [8]): 0.06 µg/mL (≈ 0.172 µM)
- MIC (S. pneumoniae A-9585; Streptococcus pneumoniae, A9585, S. pneumoniae A-9585, read-out: MIC): 0.004 µg/mL (≈ 0.0115 µM)
- MIC (P. morganii A15153; Morganella morganii, A15153, M. morganii A15153, read-out: MIC): 0.06 µg/mL (≈ 0.172 µM)
- MIC (S. pyogenes A9604; Streptococcus pyogenes, A9604, S. pyogenes A-9604, read-out: MIC): 0.004 µg/mL (≈ 0.0115 µM)
- MIC (K. pneumoniae A-9664; [9]): 0.03 µg/mL (≈ 0.0861 µM)
- MIC (P. mirabilis A-9900; [10]): 0.03 µg/mL (≈ 0.0861 µM)
